{"source": "patent US9109001B2", "about": "“3′,5′-cyclic phosphoramidate prodrugs for HCV infection” (priority 2012, dated 2015)", "key": {"[1]": {"system": "HCV genotype 1b replicon", "assay": "HCV Replicon Assay", "type": "cell-based", "description": "Huh-7-derived cell line (Zluc) that harbors an HCV genotype 1b replicon and a luciferase reporter gene was grown in Dulbecco's Modified Eagle Medium (DMEM) supplemented with 10% fetal bovine serum, 2 mM GlutaMAX, 1% MEM nonessential amino acids, 100 IU/mL penicillin, 100 μg/mL streptomycin, and 0.5 mg/mL Geneticin® (G418). For dose response testing the cells were seeded in 96-well plates at 7.5×10^3 cells per well in a volume of 50 μL, and incubated at 37° C./5% CO2. Drug solutions were made up freshly in Huh-7 media as 2× stocks. Ten additional 5-fold dilutions were prepared from these stocks in DMEM without G418. At least three hours after Zluc cells were seeded, drug treatment was initiated by adding 50 μL of drug dilutions to the plates in duplicate. Final concentrations of drug ranged from 100 μM to […]. Cells were then incubated at 37° C./5% CO2. Alternatively, compounds were tested at two concentrations (1 μM and 10 μM). […] For this, media was removed from the plates via gentle tapping. Fifty microliters of ONE-glo luciferase assay reagent was added to each well. The plates were shaken gently for 3 min at room temperature and luminescence was measured on a Victor^3 V 1420 multilabel counter (Perkin Elmer) with a 1 second read time using a 700 nm cut-off filter. The EC50 values were calculated from dose response curves from the resulting best-fit equations determined by Microsoft Excel and XLfit 4.1 software. When screening at two fixed concentrations, the results were expressed as % inhibition at 1 μM and 10 μM."}, "[2]": {"system": "Zluc cells", "assay": "Cytotoxicity evaluation (CellTiter-Blue Cell Viability Assay)", "type": "cell-based, human", "conditions": "read-out: HCV Replicon CC50"}, "[3]": {"assay": "Stability in simulated intestinal fluid", "type": "in vitro ADME", "conditions": "100 μM, 2 hours at 37° C.; percent of peak area at time zero", "description": "Stability in Simulated Gastric and Intestinal Fluids: Simulated gastric and intestinal fluids containing pepsin and pancreatin respectively were prepared according to the U.S. Pharmacopoeia USP291 procedure (www.pharmacopeia.cn/v29240/usp29nf24s0_ris1s126.html). Test compound (final concentration 100 μM) was incubated in duplicate in the appropriate fluid for 2 hours at 37° C. The samples were quenched with 200 μl cold acetonitrile, vortexed for 30 seconds and then centrifuged at 16,100 g for 10 min. The supernatants were analyzed by HPLC on a C-18 column with UV detection at 252 nm. The time 0 samples were prepared by adding SGF or SIF fluid to the quenching solvent followed by the test compound. Stability of the compound was determined by peak area the test compound after incubation and calculated as percent of the peak area observed at time zero."}, "[4]": {"assay": "Stability in fresh human whole blood", "type": "in vitro ADME", "conditions": "0.5 μM, percent unchanged test compound", "description": "(§1) Stability in Fresh Whole Blood: Stability of test compounds were determined in fresh human whole blood with K2EDTA as the anticoagulant (stored refrigerated at 2-8° C. and used within 7 days of receipt). The experiment was conducted with three replicates for each time point. Whole blood, pre-incubated at 37° C. for 10-15 minutes, was fortified with a solution of test compound for a final concentration of 0.5 μM and mixed for 30 sec. At intervals (0, 0.5, 1 and 2 hr), three 50-μL aliquots were combined with 200 μL (each) of an ice-cold solution of the internal standard (carbutamide 500 ng/mL in acetonitrile). The samples were vortexed for 30 sec and then centrifuged at 16,100 g for 5 min. The supernatant was analyzed by LC-MS/MS. The MS peak area ratio of the test compound versus the internal standard was calculated and percent unchanged test compound was calculated for each time point using this ratio."}, "[5]": {"assay": "Stability in mouse blood", "type": "in vitro ADME", "conditions": "on ice, percent unchanged test compound", "description": "as §1\nThe stability in mouse blood was determined on ice at 0, 0.5 and 1 hr as above."}, "[6]": {"assay": "Stability in human liver microsomes", "type": "in vitro ADME", "conditions": "10 μM, 1.0 mg/mL protein, NADPH, 60 min; percent unchanged", "description": "Stability in Liver and Intestinal Subcellular Fractions: Stability of test compounds were determined in subcellular fractions (microsomes and S9) of human liver and intestine in duplicate for each matrix. Pooled liver and intestinal microsomal, intestinal and liver S9 proteins (1.0 mg/mL), suspended in incubation buffer (100 mM potassium phosphate, pH 7.4, 5 mM MgCl2, and 0.1 mM EDTA), were preincubated for 5 min at 37° C. with 10 μM of a test compound from a 10 mM stock solution in DMSO (final DMSO concentration was 0.1%); the reaction was initiated by the addition of NADPH (3 mM final concentration). At specific times (0 and 60 min), 0.1 mL samples were taken and the reaction terminated by the addition of 4 volumes of stop solution (acetonitrile with 500 ng/mL carbutamide as an internal standard). The samples were vortexed for 30 sec and then centrifuged at 16,000 g for 10 min. 100 μL of supernatants were transferred to 96 deep-well plates preloaded with 100 μL distilled water and analyzed after mixing by LC-MS/MS. The MS peak area ratio of the test compound versus the internal standard was calculated and percent unchanged test compound over 60 minutes was calculated using this ratio."}, "[7]": {"system": "fresh human hepatocytes", "assay": "Release of active metabolite in fresh human hepatocytes", "type": "in vitro ADME", "conditions": "10 μM", "description": "Assay for the Release of Active Metabolite in Primary Hepatocytes: Plates of fresh human and mouse hepatocytes were obtained on ice. The medium was removed and replaced with hepatocyte culture medium (William's E supplemented with penicillin-streptomycin, 1% L-glutamine, 1% insulin-transferrin-selenium and 0.1 μM Dexamethasone (Invitrogen) or with Invitro GRO HI medium complemented with Torpedo antibiotics (Celsis)). Cells were left overnight in an incubator at 37° C. to acclimatize to culture and the medium.\nHepatocyte incubations were conducted at a final volume of 0.5 mL hepatocyte culture medium/well (0.8 million cells/well for human and 0.5 million cells/well for mouse; 12 well plate no overlay, collagen coat). Culture medium from overnight incubation of cells was removed and replaced with fresh medium, pre-warmed to 37° C., containing 10 μM of test compound from a stock solution in DMSO (final DMSO concentration was 0.1%). At each specific time point, incubation medium was removed and cell monolayers were carefully washed two times with ice-cold PBS. Following the last wash, all PBS was carefully removed and 1.0 mL of extraction solution (ice-cold 70% methanol/30% water) added. Cells were scraped off and suspended in the extraction solution, transferred to 2 mL polypropylene microfuge tubes and intracellular contents extracted overnight at −20° C.\nAfter the overnight treatment the cellular extracts were prepared by centrifugation at 16,000×g for 10 min to remove cellular debris. The remaining sample was then dried using a refrigerated centrivap concentrator. Dry extracts were reconstituted in 1000 μL of HPLC-grade water and centrifuged at 16,000×g for 10 min. Aliquots (100 μL each) of the supernatant were transferred into a 96 well plate and internal standard (4 ng/mL final concentration) was added as the internal standard (IS) for LC-MS/MS analysis.\nThe incubation time points were 6, 24 and 48 hours for human hepatocytes and 1, 4, 8, 12 and 24 hours for mouse hepatocytes."}, "[8]": {"system": "Huh-7 cells", "assay": "Release of active metabolite in Huh-7 cells", "type": "in vitro ADME, human", "conditions": "Table 6, AUC0-72", "description": "Assay for the Release of Active Metabolite in Huh-7 Cells. Huh-7 cells were plated in 1 mL culture medium (DMEM, containing glucose, L-glutamine and sodium pyruvate, 10% FBS, 100 IU/mL penicillin, 100 μg/mL streptomycin, 2 mM GlutaMAX, 1% MEM non-essential amino acids) at the concentration 0.8, 0.4 and 0.2 million cells per well on 6 well plates for 24, 48 and 72 hr treatment, respectively. Plated cells were incubated overnight at 37° C. in an incubator.\nThe following morning test compound was diluted to 20 μM from a stock solution in DMSO in fresh culture medium pre-warmed to 37° C. and 1 mL of the solution/well was added to cells. A final medium volume per well was 2.0 mL, test compound concentration in well was 10 μM and final DMSO concentration was 0.1%.\nAfter 24, 48 or 72 hr, the medium was carefully removed and cell monolayers were washed twice with 2 mL ice-cold PBS per well. Following the last wash, all PBS was carefully removed and 1.0 mL of extraction solution (ice-cold 70% methanol) added. The plate was tightly covered with Parafilm, plastic plate cover and Parafilm again and an intracellular content was extracted at −20° C. for 24 hr.\nAfter 24 hr extracts were transferred into polypropylene microfuge tubes and dry on a refrigerated centrivap concentrator. Dry residues were reconstituted in 250 μL of HPLC-grade water and centrifuged at 16,000×g for 10 min. Aliquots (100 μL each) of the supernatants were transferred into a 96 well plate and internal standard (4 ng/mL final concentration) was added as the internal standard (IS) for LC-MS/MS analysis."}, "[9]": {"biological_target": "T1, cathepsin A (CatA) (Homo sapiens, UniProt P10619)", "T1 sequence (P10619 29-326 limits assumed)": "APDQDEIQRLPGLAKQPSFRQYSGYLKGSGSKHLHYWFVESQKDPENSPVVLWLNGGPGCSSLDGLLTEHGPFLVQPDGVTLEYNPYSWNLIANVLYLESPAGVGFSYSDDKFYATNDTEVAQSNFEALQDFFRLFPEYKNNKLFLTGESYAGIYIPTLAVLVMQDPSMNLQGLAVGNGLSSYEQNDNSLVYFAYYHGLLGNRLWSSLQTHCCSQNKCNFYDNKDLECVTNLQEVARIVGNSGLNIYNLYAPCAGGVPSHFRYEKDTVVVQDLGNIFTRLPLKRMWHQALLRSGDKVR", "T1 sequence (P10619 327-480 limits assumed)": "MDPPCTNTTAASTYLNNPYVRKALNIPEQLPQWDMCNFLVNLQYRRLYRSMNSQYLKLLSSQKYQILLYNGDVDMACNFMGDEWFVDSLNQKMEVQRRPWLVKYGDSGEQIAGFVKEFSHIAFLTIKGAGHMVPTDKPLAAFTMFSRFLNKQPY", "assay": "CatA hydrolysis assay", "type": "in vitro ADME", "conditions": "for CatA hydrolysis @ 18 h: 100 μM compound, 37° C.", "method": "CatA, cathepsin L (CatL) and CES1 were purchased from R & D Systems (Minneapolis, Minn.). Prior to the enzymatic hydrolysis reactions, CatA was activated according to the manufacturer's instruction. Briefly, CatA (0.05 μg/μL) was incubated with CatL (0.005 μg/μL) for 30 min at 37° C. in 25 mM MES pH 6.0 containing 5 mM DTT. The reaction was stopped by addition of the CatL specific inhibitor E64 (10 μM).\nThe CatA assay was performed at 37° C. The reaction mixture contained 25 mM MES buffer pH 6.0, 100 mM NaCl, 4 mM DTT and 100 μM of the compound. The reaction was started by addition of the activated CatA enzyme to a final concentration of 0.005 μg/μL. One hundred-μL aliquots were taken after 0.5 min, 3 hrs and 18 hrs of incubation. Reactions were stopped by mixing the sample with an equal volume of ice-cold methanol, and were loaded on a HPLC for analysis.\n(§2) Samples were analyzed by HPLC using 5 μC-18, 4.6×250 mm Phenomenex® Columbus column (Phenomenex USA, CA). The mobile phase consisted of buffer A (25 mM potassium phosphate with 5 mM tetrabutylammonium dihydrogen phosphate pH 6.3) and buffer B (100% methanol)."}, "[10]": {"biological_target": "T2, carboxylesterase 1 (CES1) (Homo sapiens, UniProt P23141)", "T2 sequence (P23141 18-567)": "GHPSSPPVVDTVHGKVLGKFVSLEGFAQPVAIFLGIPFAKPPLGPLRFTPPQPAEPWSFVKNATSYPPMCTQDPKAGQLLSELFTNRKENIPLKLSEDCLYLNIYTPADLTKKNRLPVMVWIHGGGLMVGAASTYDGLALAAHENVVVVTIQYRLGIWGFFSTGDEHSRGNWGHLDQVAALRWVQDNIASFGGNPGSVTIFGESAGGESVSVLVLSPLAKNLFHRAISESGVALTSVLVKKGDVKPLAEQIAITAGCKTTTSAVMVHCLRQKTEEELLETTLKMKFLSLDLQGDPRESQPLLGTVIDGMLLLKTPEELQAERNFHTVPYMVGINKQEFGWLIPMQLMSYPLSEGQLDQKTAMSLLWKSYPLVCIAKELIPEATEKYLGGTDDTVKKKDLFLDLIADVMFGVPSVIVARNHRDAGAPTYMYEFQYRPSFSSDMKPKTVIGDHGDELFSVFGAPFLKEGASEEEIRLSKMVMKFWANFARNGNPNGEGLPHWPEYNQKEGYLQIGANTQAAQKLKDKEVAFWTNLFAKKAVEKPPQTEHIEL", "assay": "CES1 hydrolysis assay", "conditions": "100 μM compound, 37° C.", "method": "(§3) CES1 assay was performed at 37° C. in the reaction mixture containing 50 mM Tris/HCl buffer pH 7.5 and 100 μM of the compound. Reaction was started by addition of the CES1 to the final concentration 0.01 μg/mL. 100 μL aliquots were taken after 0.5 min, 3 hrs and 21 hrs of the incubation and the reaction was stopped by mixing with 100 μl of the ice-cold methanol prior to HPLC analysis.\nas §2"}, "[11]": {"assay": "Liver TP (Table 6)", "type": "in vivo", "conditions": "liver triphosphate, species and dose not stated"}, "[12]": {"biological_target": "T2, carboxylesterase 1 (CES1)", "method": "as §3, §2"}}, "note": "Where two headings read alike, the source gives them in different places."}
{"molecule": "CCOc1nc(N)nc2c1ncn2[C@@H]1O[C@@H]2COP(=O)(NCCC(=O)OC(C)C)O[C@H]2[C@@]1(C)F", "note": "(single isomer, unassigned) [Compound 2 Diastereomer 2]", "values": [{"measurement": "EC50", "setting": "[1]; Zluc (Huh-7-derived) cells, HCV genotype 1b replicon, luciferase reporter, 72 hours, read-out: HCV Replicon EC50", "value": "250 to 1000", "unit": "nM"}, {"measurement": "CC50", "setting": "[2]", "value": "> 50000", "unit": "nM"}, {"measurement": "Stability SIF", "setting": "[3]", "value": 91, "unit": "%"}, {"measurement": "Stability WB_Human (37° C.; 2 hr)", "setting": "[4]", "value": 91, "unit": "%"}, {"measurement": "Stability WB_Mouse (ice; 1 hr)", "setting": "[5]", "value": 60, "unit": "%"}, {"measurement": "Stability HLM (1 hr)", "setting": "[6]", "value": 5.7, "unit": "%"}, {"measurement": "FHH TP AUC (pmol · hr/mill cells)", "setting": "[7]", "value": 336, "unit": "pmol · hr/mill cells"}]}
{"molecule": "CC(C)OC(=O)[C@H](C)N[P@](=O)(OC[C@H]1O[C@@H](n2ccc(=O)[nH]c2=O)[C@](C)(F)[C@@H]1O)Oc1ccccc1", "note": "(single isomer, unassigned) [GS-7977]", "values": [{"measurement": "EC50", "setting": "[1]; Hepatitis C virus, Huh-7, Table 6, genotype 1b HCV replicon-bearing Huh-7 cells, read-out: EC50", "value": 250, "unit": "nM"}, {"measurement": "Huh-7 pmol*hr/10^6 cells AUC0-72", "setting": "[8]", "value": 63555, "unit": "pmol*hr/10^6 cells"}, {"measurement": "CatA hydrolysis @ 18 h", "setting": "[9]", "value": 100, "unit": "% @"}, {"measurement": "CatA cleavage efficiency versus RP diastereoisomer", "setting": "[9]; GS-7977 (SP) relative to PSI-7976 (RP)", "value": 10, "unit": "times"}, {"measurement": "CES1 hydrolysis 3 h", "setting": "[10]; 3 h", "value": "12%/3 h;"}, {"measurement": "CES1 hydrolysis 21 h", "setting": "[10]; 21 h", "value": 15, "unit": "%/21 h"}]}
{"molecule": "CC(C)OC(=O)[C@H](C)N[P@@](=O)(OC[C@H]1O[C@@H](n2ccc(=O)[nH]c2=O)[C@](C)(F)[C@@H]1O)Oc1ccccc1", "note": "[PSI-7976]", "values": [{"measurement": "EC50", "setting": "[1]; Table 6, genotype 1b HCV replicon-bearing Huh-7 cells, read-out: EC50", "value": 2080, "unit": "nM"}, {"measurement": "Huh-7 pmol*hr/10^6 cells AUC0-72", "setting": "[8]", "value": 6527, "unit": "pmol*hr/10^6 cells"}, {"measurement": "CatA hydrolysis @ 18 h", "setting": "[9]", "value": 10, "unit": "% @"}, {"measurement": "Liver TP", "setting": "[11]", "value": 310, "unit": "pmol·h/g"}, {"measurement": "Hydrolysis by CES1 (in words)", "setting": "[12]", "value": "preferentially hydrolyzed"}]}
